Reference: patent US20230150920A1, “SALTS AND SOLID FORMS OF 4-BROMO-2,5-DIMETHOXYPHENETHYLAMINE” (priority 2021, published 2023)
Entries after “also recorded” stand apart in the source; their conditions may differ. Where a name gives a salt, the structure may show the parent alone.

Assays:
[1] = Method: Solubilities in water were estimated for the majority of the salts identified during screening. The experiments were carried out by adding water in aliquots to weighed portions of solid. […] Values are reported as “≥” if complete dissolution was observed upon the first aliquot.
[2] = Deliquescence at 75% RH at ambient temperature; format: physicochemical
[3] = Dynamic vapor sorption/desorption (DVS), hygroscopicity; format: physicochemical; conditions: for Water uptake (5-85% RH) %: 5-85% RH part of sorption; for Water uptake (85-95% RH) %: 85-95% RH part of sorption; for Hygroscopicity: grade in words, from DVS; for Water uptake (5-95% RH) %: total
Method: The active pharmaceutical ingredient (API), 4-bromo-2,5-dimethoxyphenethylamine hydrochloride, is characterized to evaluate its physical properties. The evaluation is performed by X-ray powder diffraction (XRPD), polarized light microscopy (PLM), differential scanning calorimetry (DSC), thermogravimetry (TG), dynamic vapor sorption/desorption (DVS), and/or solubility testing in organic solvents, water, and mixed solvent systems. XRPD data are used to assess crystallinity. PLM data are used to evaluate crystallinity and particle size/morphology. DSC data are used to evaluate melting point, thermal stability, and crystalline form conversion. TG data are used to evaluate if the API is a solvate or hydrate, and to evaluate thermal stability. DVS data are used to evaluate hygroscopicity of the API and if hydrates can be formed at high relative humidity.
The form characterized in FIGS. 1 and 2 is designated as Form A herein. […] A sharp endotherm at 238° C. in the DSC thermogram is attributed to melting.

[4] = Dynamic vapor sorption (DVS) with XRPD of the post-DVS sample; format: physicochemical; conditions: for hygroscopicity based on DVS data / moisture gain by DVS / moisture gain by DVS, equivalent moles of water: 25° C.; for hygroscopicity based on DVS data: 5 to 95% RH; for moisture gain by DVS / moisture gain by DVS, equivalent moles of water: adsorption 5 to 95% RH; for post-DVS XRPD result: XRPD of the post-DVS sample; for DVS desorption weight loss, 85-5% RH: desorption 85-5% RH; for DVS desorption weight loss, 95-85% RH: desorption 95-85% RH; for behaviour on desorption / form change by XRPD of post-DVS sample: desorption 95 to 5% RH; for DVS sorption weight gain, 5-85% RH: sorption 5-85% RH; for DVS sorption weight gain, 85-95% RH: sorption 85-95% RH
Method: Dynamic Vapor Sorption (DVS) analysis was carried out using a TA Instruments Q5000 Dynamic Vapor Sorption analyzer. The instrument was calibrated with standard weights and a sodium bromide standard for humidity. Approximately 10-25 mg of sample was loaded into a metal-coated quartz pan for analysis. The sample was analyzed at 25° C. with a maximum equilibration time of one hour in 10% relative humidity (RH) steps from 5 to 95% RH (adsorption cycle) and from 95 to 5% RH (desorption cycle). The movement from one step to the next occurred either after satisfying the equilibrium criterion of 0.01% weight change or, if the equilibrium criterion was not met, after one hour. The percent weight change values were calculated using Microsoft Excel.
(§1) The DVS analysis was carried out using a TA Instruments Q5000 Dynamic Vapor Sorption analyzer. 13.5 mg of sample was loaded into a metal-coated quartz pan for analysis. After equilibration to 5% relative humidity (RH), the sample was analyzed at 25° C. in 10% RH steps from 5 to 95% RH (adsorption cycle) and from 95 to 5% RH (desorption cycle). The movement from one step to the next occurred either after satisfying the equilibrium criterion of 0.01% weight change in 5 minutes or, if the equilibrium criterion was not met, after 90 minutes. The percent weight change values are calculated using Microsoft Excel®.
as §1, with “DVS analyses were” for “DVS analysis was”, “analyzer. Approximately 7-11” for “analyzer. 13.5”, “equilibration at” for “equilibration to”, “values were” for “values are”
as §1, with “analyzer. Approximately 2” for “analyzer. 13.5”, “equilibration at” for “equilibration to”, “values were” for “values are”

[5] = Estimated solubilities of 2C-B HCl in solvents; conditions: thermodynamic from solid
[6] = Solubility estimate by adding solvent aliquots to weighed solid, dissolution judged visually; conditions: thermodynamic from solid
[7] = several days at 75% RH at ambient temperature
[8] = MeOH/CHCl3 50/50, organic solvent or mixture
[9] = acetone, organic solvent or mixture
[10] = acetone/H2O 80/20, organic solvent or mixture

Molecule | deliquescence ([2]; at 75% RH) | deliquescence [2, 7] | Water uptake (5-85% RH) % [3] [%] | Water uptake (85-95% RH) % [3] | Hygroscopicity: weight gain ([3]; <85% RH) | Hygroscopicity: weight gain ([3]; >85% RH) | Hygroscopicity [3] | Water uptake (5-95% RH) % ([3]; 5-95% RH) [%] | hygroscopicity based on DVS data [4] | moisture gain by DVS [4] [%] | moisture gain by DVS, equivalent moles of water [4] | post-DVS XRPD result [4] | DVS desorption weight loss, 85-5% RH [4] | DVS desorption weight loss, 95-85% RH [4] | behaviour on desorption / form change by XRPD of post-DVS sample [4] | DVS desorption total loss [4] | DVS sorption weight gain, 5-85% RH [4] | DVS sorption weight gain, 85-95% RH [4] | DVS sorption total gain [4] | also measured
2C-B malate | Did not deliquesce | not observed | 0.6 | (5-85); 1 (85-95) % | RH: 0.6% | RH: 1.0% gain | Slightly | 1.6 | slightly hygroscopic | 1.6 | approximately 0.4 moles | Consistent with Malate | 85-5% RH: 0.6% loss | 95-85% RH: 1.0% loss | all the gained moisture is lost without form change | Total loss: 1.6% | 5-85% RH: 0.6% gain | 85-95% RH: 1.0% gain | Total gain: 1.6% | Kinetic water solubility [1]: 6 mg/mL; estimated kinetic solubility in water ([1]; room temperature, visually determined): 6 mg/mL; aqueous solubility (kinetic) ([1]; water, kinetic estimate): 6 mg/mL aqueous; Estimated kinetic aqueous solubility ([1]; water, room temperature, * = a few particulates/flakes remaining (see comments)): 6 mg/mL
COc1cc(CCN)c(OC)cc1Br.Cl [2C-B HCl, 4-bromo-2,5-dimethoxyphenethylamine HCl] | – | – | – | – | – | – | – | – | – | – | – | – | – | – | – | – | – | – | – | DVS Sorption: weight gain ([3]; 5-95% RH): 5-95% RH: 0.9% gain; DVS Desorption: weight loss ([3]; 95-5% RH): 95-5% RH: 1.0% loss; post-DVS XRPD ([4]; solid form after DVS cycle): Form A; solubility ([5]; ACN, organic solvent or mixture): < 1 mg/mL; solubility ([5]; EtOAc, organic solvent or mixture): < 2 mg/mL; solubility ([5]; EtOH, organic solvent or mixture): 13 mg/mL; solubility ([5]; H2O, water): 34 mg/mL; solubility ([5]; IPA, organic solvent or mixture): < 2 mg/mL; solubility ([5]; MeOH, organic solvent or mixture): 41 mg/mL; solubility [5, 8]: 41 mg/mL; solubility ([5]; THF, organic solvent or mixture): < 2 mg/mL; solubility [5, 9]: < 2 mg/mL; solubility [5, 10]: ≥ 79 mg/mL
COc1cc(CCN)c(OC)cc1Br [2C-B.HCl, 4-bromo-2,5-dimethoxyphenethylamine hydrochloride] | – | – | – | – | – | – | – | – | – | – | – | – | – | – | – | – | – | – | – | solubility [6, 8]: 41 mg/mL; solubility [6, 9]: < 2 mg/mL; solubility [6, 10]: > 79 mg/mL; solubility ([6]; acetonitrile, organic solvent or mixture): < 1 mg/mL; solubility ([6]; ethanol, organic solvent or mixture): 13 mg/mL; solubility ([6]; ethyl acetate, organic solvent or mixture): < 2 mg/mL; solubility ([6]; isopropanol, organic solvent or mixture): < 2 mg/mL; solubility ([6]; methanol, organic solvent or mixture): 41 mg/mL; solubility ([6]; tetrahydrofuran, organic solvent or mixture): < 2 mg/mL; solubility ([6]; water): 34 mg/mL
COc1cc(CCN)c(OC)cc1Br.O=S(=O)(O)O [Sulfate, 2C-B sulfate] | Did not deliquesce | not observed | 0.8 | (5-85), 1.4 (85-95) % | RH: 0.8% | RH: 1.4% | Slightly | 2.2 | slightly hygroscopic | 2.2 | approximately 0.5 moles | Consistent with Sulfate | 85-5% RH: 0.8% loss | 95-85% RH: 1.3% loss | form change does not occur | Total loss: 2.1% | 5-85% RH: 0.8% gain | 85-95% RH: 1.4% gain | Total gain: 2.2% | –
COc1cc(CCN)c(OC)cc1Br.O=C(O)C(O)C(O)C(=O)O [Tartrate (Form 1), 4-bromo-2,5-dimethoxyphenethylamine (2C-B) tartrate] | Did not deliquesce | not observed; also recorded: does not deliquesce | – | – | – | – | Non-hygroscopic; | 0.1 | non-hygroscopic | 0.1 | – | Crystalline, consistent | – | – | Form change does not occur | – | – | – | – | Hygroscopicity: weight gain ([3]; 5-95% RH): 5-95% RH: 0.1%; DVS desorption weight loss, 95-5% RH ([4]; desorption 95-5% RH): 95-5% RH: 0.1% loss; DVS sorption weight gain, 5-95% RH ([4]; sorption 5-95% RH): 5-95% RH: 0.1% gain
